Where two headings read alike, the source gives them in different places.
Assays:
human Gal-3 (hGal-3) = human Gal-3 (hGal-3) (Homo sapiens (Human), UniProt P17931); assay: Competitive binding assay: biotinylated hGal-3 to microplate-adsorbed asialofetuin (ASF); conditions: Activity on hGal-3; binding to ASF-coated plates, 3 hours at 4° C.; mean values
In short: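 Biotinylated hGal-3 (300-1000 ng/mL) binding to plate-adsorbed asialofetuin, with DMSO-diluted compound added, incubated 3 h at 4 °C. After washing, bound protein detected with streptavidin-peroxidase (80 ng/mL, 1 h, 4 °C) and ABTS substrate, read spectrophotometrically. IC50 given as mean of several measurements.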

human Gal-1 (hGal-1) = human Gal-1 (hGal-1) (Homo sapiens, UniProt P09382); assay: Competitive binding assay: biotinylated hGal-1 to microplate-adsorbed asialofetuin (ASF)
In short: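 Plate-adsorbed asialofetuin is incubated 3 h at 4 °C with biotinylated hGal-1, optionally its all-serine-substituted cysteine variant, plus compound dilutions. ABTS color after 1 h streptavidin-peroxidase (80 ng/mL) at 4 °C reports binding. Reported IC50 is a mean across repeat runs.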

[1] = Activities on hGal-1; binding to ASF-coated plates, 3 hours at 4° C.; mean values; read-out: Gal-1 IC50

human Gal-1 (hGal-1), sequence (P09382 2-135 limits assumed): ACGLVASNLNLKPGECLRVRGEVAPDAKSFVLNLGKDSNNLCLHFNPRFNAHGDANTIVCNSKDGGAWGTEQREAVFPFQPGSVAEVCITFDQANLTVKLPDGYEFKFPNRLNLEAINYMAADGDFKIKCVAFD
human Gal-3 (hGal-3), sequence (P17931 whole entry): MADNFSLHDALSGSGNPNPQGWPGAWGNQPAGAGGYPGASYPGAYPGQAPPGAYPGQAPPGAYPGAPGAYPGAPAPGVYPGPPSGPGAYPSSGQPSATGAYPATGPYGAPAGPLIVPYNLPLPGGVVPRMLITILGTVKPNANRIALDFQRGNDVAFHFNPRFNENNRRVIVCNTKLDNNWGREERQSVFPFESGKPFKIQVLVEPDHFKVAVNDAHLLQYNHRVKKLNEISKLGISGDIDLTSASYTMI

Row | IC50 (human Gal-3 (hGal-3)) | IC50 (human Gal-1 (hGal-1); [1]) | IC50 (human Gal-1 (hGal-1); read-out: Gal-1 IC50; Activities on hGal-1; binding to ASF-coated plates, 3 hours at 4° C.; mean values) | Structure (SMILES)
1 | 190 nM | 4600 nM |  | CO[C@@H]1[C@@H](n2cc(-c3ccc(C)c(F)c3F)nn2)[C@@H](O)[C@@H](CO)O[C@@H]1CC1=NO[C@]2(CC[C@H](C(C)(C)O)CC2)C1 [Example 1.62, (2R,3R,4S,5R,6R)-4-(4-(2,3-difluoro-4-methylphenyl)-1H-1,2,3-triazol-1-yl)-2-(hydroxymethyl)-6-(((5r,8R)-8-(2-hydroxypropan-2-yl)-1-oxa-2-azaspiro[4.5]dec-2-en-3-yl)methyl)-5-methoxytetrahydro-2H-pyran-3-ol]
2 | 50 nM | 1950 nM |  | CO[C@@H]1[C@@H](n2cc(-c3ccc(C)c(F)c3F)nn2)[C@@H](O)[C@@H](CO)O[C@@H]1CC1=NOC2(C1)CC1CCC(C1)C2 (stereo partly drawn) [Example 1.82, (2R,3R,4S,5R,6R)-6-((4′H-spiro[bicyclo[3.2.1]octane-3,5′-isoxazol]-3′-yl)methyl)-4-(4-(2,3-difluoro-4-methylphenyl)-1H-1,2,3-triazol-1-yl)-2-(hydroxymethyl)-5-methoxytetrahydro-2H-pyran-3-ol]
3 | 380 nM | 1600 nM |  | CO[C@@H]1[C@@H](n2cc(-c3cc(F)c(F)c(F)c3)nn2)[C@@H](O)[C@@H](CO)O[C@@H]1CC1=NO[C@]2(CC[C@@H](NCC(F)F)CC2)C1 [Example 2.21, (2R,3R,4S,5R,6R)-6-(((5s,8S)-8-((2,2-difluoroethyl)amino)-1-oxa-2-azaspiro[4.5]dec-2-en-3-yl)methyl)-2-(hydroxymethyl)-5-methoxy-4-(4-(3,4,5-trifluorophenyl)-1H-1,2,3-triazol-1-yl)tetrahydro-2H-pyran-3-ol]
4 | 140 nM | 5600 nM |  | COC(=O)CO[C@@H]1[C@@H](n2cc(-c3ccc(C)c(F)c3F)nn2)[C@@H](O)[C@@H](CO)O[C@@H]1CC1=NOC2(CCC(F)(F)CC2)C1 [Example 1.72, methyl 2-(((2R,3R,4S,5R,6R)-2-((8,8-difluoro-1-oxa-2-azaspiro[4.5]dec-2-en-3-yl)methyl)-4-(4-(2,3-difluoro-4-methylphenyl)-1H-1,2,3-triazol-1-yl)-5-hydroxy-6-(hydroxymethyl)tetrahydro-2H-pyran-3-yl)oxy)acetate]
5 | 74 nM | 1700 nM |  | CO[C@@H]1[C@@H](n2cc(-c3ccc(C)c(F)c3F)nn2)[C@@H](O)[C@@H](CO)O[C@@H]1CN1CC2(CCCCC2)N=C1C [Example 4.03, (2R,3R,4S,5R,6R)-4-(4-(2,3-difluoro-4-methylphenyl)-1H-1,2,3-triazol-1-yl)-2-(hydroxymethyl)-5-methoxy-6-((2-methyl-1,3-diazaspiro[4.5]dec-1-en-3-yl)methyl)tetrahydro-2H-pyran-3-ol]
6 | 220 nM | 3700 nM |  | COC(=O)CO[C@@H]1[C@@H](n2cc(-c3cc(F)c(F)c(F)c3)nn2)[C@@H](O)[C@@H](CO)O[C@@H]1CC1=NOC2(CCCCC2)C1 [Example 1.68, methyl 2-(((2R,3R,4S,5R,6R)-2-((1-oxa-2-azaspiro[4.5]dec-2-en-3-yl)methyl)-5-hydroxy-6-(hydroxymethyl)-4-(4-(3,4,5-trifluorophenyl)-1H-1,2,3-triazol-1-yl)tetrahydro-2H-pyran-3-yl)oxy)acetate]
7 | 120 nM | 2700 nM |  | CO[C@@H]1[C@@H](n2cc(-c3ccc(Cl)c(F)c3F)nn2)[C@@H](O)[C@@H](CO)O[C@@H]1CC1=NO[C@]2(CC[C@@H](C(C)(C)O)CC2)C1 [Example 1.65, (2R,3R,4S,5R,6R)-4-(4-(4-chloro-2,3-difluorophenyl)-1H-1,2,3-triazol-1-yl)-2-(hydroxymethyl)-6-(((5s,8S)-8-(2-hydroxypropan-2-yl)-1-oxa-2-azaspiro[4.5]dec-2-en-3-yl)methyl)-5-methoxytetrahydro-2H-pyran-3-ol]
8 | 110 nM | 1800 nM |  | CO[C@@H]1[C@@H](n2cc(-c3cc(F)c(F)c(F)c3)nn2)[C@@H](O)[C@@H](CO)O[C@@H]1CC1=NO[C@]2(CC[C@H](NCC(F)F)CC2)C1 [Example 2.20, (2R,3R,4S,5R,6R)-6-(((5r,8R)-8-((2,2-difluoroethyl)amino)-1-oxa-2-azaspiro[4.5]dec-2-en-3-yl)methyl)-2-(hydroxymethyl)-5-methoxy-4-(4-(3,4,5-trifluorophenyl)-1H-1,2,3-triazol-1-yl)tetrahydro-2H-pyran-3-ol]

Second part, the compound before the results:

Row | Structure (SMILES) | IC50 (human Gal-3 (hGal-3)) | IC50 (human Gal-1 (hGal-1); [1]) | IC50 (human Gal-1 (hGal-1); read-out: Gal-1 IC50; Activities on hGal-1; binding to ASF-coated plates, 3 hours at 4° C.; mean values)
9 | CO[C@@H]1[C@@H](n2cc(-c3cc(F)c(F)c(F)c3)nn2)[C@@H](O)[C@@H](CO)O[C@@H]1CC1=NOC2(CCN(C(=O)OC(C)(C)C)CC2)C1 [Example 1.06, tert-butyl 3-(((2R,3R,4S,5R,6R)-5-hydroxy-6-(hydroxymethyl)-3-methoxy-4-(4-(3,4,5-trifluorophenyl)-1H-1,2,3-triazol-1-yl)tetrahydro-2H-pyran-2-yl)methyl)-1-oxa-2,8-diazaspiro[4.5]dec-2-ene-8-carboxylate] | 340 nM | 4200 nM | 
10 | CO[C@@H]1[C@@H](n2cc(-c3cc(F)c(F)c(F)c3)nn2)[C@@H](O)[C@@H](CO)O[C@@H]1CC1=NOC2(CCOCC2)C1 [Example 1.23, (2R,3R,4S,5R,6R)-6-((1,8-dioxa-2-azaspiro[4.5]dec-2-en-3-yl)methyl)-2-(hydroxymethyl)-5-methoxy-4-(4-(3,4,5-trifluorophenyl)-1H-1,2,3-triazol-1-yl)tetrahydro-2H-pyran-3-ol] | 760 nM | 3500 nM | 
11 | CO[C@@H]1[C@@H](n2cc(-c3cc(F)c(F)c(F)c3)nn2)[C@@H](O)[C@@H](CO)O[C@@H]1CC1=NOC2(CCC(C)(C)CC2)C1 [Example 1.29, (2R,3R,4S,5R,6R)-6-((8,8-dimethyl-1-oxa-2-azaspiro[4.5]dec-2-en-3-yl)methyl)-2-(hydroxymethyl)-5-methoxy-4-(4-(3,4,5-trifluorophenyl)-1H-1,2,3-triazol-1-yl)tetrahydro-2H-pyran-3-ol] | 440 nM | 2200 nM | 
12 | CO[C@@H]1[C@@H](n2cc(-c3ccc(C)c(F)c3F)nn2)[C@@H](O)[C@@H](CO)O[C@@H]1CC1=NO[C@]2(CC[C@H](C#N)CC2)C1 [Example 1.57, (5r,8R)-3-(((2R,3R,4S,5R,6R)-4-(4-(2,3-difluoro-4-methylphenyl)-1H-1,2,3-triazol-1-yl)-5-hydroxy-6-(hydroxymethyl)-3-methoxytetrahydro-2H-pyran-2-yl)methyl)-1-oxa-2-azaspiro[4.5]dec-2-ene-8-carbonitrile] | 41 nM | 530 nM | 
13 | CO[C@@H]1[C@@H](n2cc(-c3cc(F)cc(Cl)c3)nn2)[C@@H](O)[C@@H](CO)O[C@@H]1CC1=NOC2(CCCCC2)C1 [Example 1.19, (2R,3R,4S,5R,6R)-6-((1-oxa-2-azaspiro[4.5]dec-2-en-3-yl)methyl)-4-(4-(3-chloro-5-fluorophenyl)-1H-1,2,3-triazol-1-yl)-2-(hydroxymethyl)-5-methoxytetrahydro-2H-pyran-3-ol] | 680 nM | 4200 nM | 
14 | CO[C@@H]1[C@@H](n2cc(-c3cc(F)c(F)c(Cl)c3)nn2)[C@@H](O)[C@@H](CO)O[C@@H]1CC1=NOC2(CCCCC2)C1 [Example 1.31, (2R,3R,4S,5R,6R)-6-((1-oxa-2-azaspiro[4.5]dec-2-en-3-yl)methyl)-4-(4-(3-chloro-4,5-difluorophenyl)-1H-1,2,3-triazol-1-yl)-2-(hydroxymethyl)-5-methoxytetrahydro-2H-pyran-3-ol] | 260 nM | 970 nM | 
15 | CO[C@@H]1[C@@H](n2cc(-c3ccc(C)c(F)c3F)nn2)[C@@H](O)[C@@H](CO)O[C@@H]1CC1=NO[C@]2(CC[C@@H](C#N)CC2)C1 [Example 1.56, (5s,8S)-3-(((2R,3R,4S,5R,6R)-4-(4-(2,3-difluoro-4-methylphenyl)-1H-1,2,3-triazol-1-yl)-5-hydroxy-6-(hydroxymethyl)-3-methoxytetrahydro-2H-pyran-2-yl)methyl)-1-oxa-2-azaspiro[4.5]dec-2-ene-8-carbonitrile] | 120 nM | 3600 nM | 
16 | CO[C@@H]1[C@@H](n2cc(-c3ccc(C)c(F)c3F)nn2)[C@@H](O)[C@@H](CO)O[C@@H]1CC1=NOC2(CCCCC2)C1 [Example 1.14, (2R,3R,4S,5R,6R)-6-((1-oxa-2-azaspiro[4.5]dec-2-en-3-yl)methyl)-4-(4-(2,3-difluoro-4-methylphenyl)-1H-1,2,3-triazol-1-yl)-2-(hydroxymethyl)-5-methoxytetrahydro-2H-pyran-3-ol] | 78 nM | 2100 nM | 
17 | OC[C@H]1O[C@H](CC2=NOC3(CCCCC3)C2)[C@H](O)[C@@H](n2cc(-c3cc(F)c(F)c(F)c3)nn2)[C@H]1O [Example 1.05, (2R,3R,4R,5R,6R)-2-((1-oxa-2-azaspiro[4.5]dec-2-en-3-yl)methyl)-6-(hydroxymethyl)-4-(4-(3,4,5-trifluorophenyl)-1H-1,2,3-triazol-1-yl)tetrahydro-2H-pyran-3,5-diol] | 280 nM |  | 2200 nM
18 | CO[C@@H]1[C@@H](n2cc(-c3cc(F)c(F)c(F)c3)nn2)[C@@H](O)[C@@H](CO)O[C@@H]1CC1=NOC2(CCC(C(C)C)CC2)C1 (stereo partly drawn) [Example 1.25, (2R,3R,4S,5R,6R)-2-(hydroxymethyl)-6-((8-isopropyl-1-oxa-2-azaspiro[4.5]dec-2-en-3-yl)methyl)-5-methoxy-4-(4-(3,4,5-trifluorophenyl)-1H-1,2,3-triazol-1-yl)tetrahydro-2H-pyran-3-ol] | 1300 nM | 11100 nM | 
